Patent publication US20080214563A1, “Benzimidazole Thiophene Compounds As Plk Modulators” (priority 2005, published 2008)

What was measured:
[1] = system: A549; experiment: Methylene Blue Cell Growth Inhibition Assay, A549; assay type: cell-based; settings: Homo sapiens, 72 h, read-out: MEB A549 IC50
Method: (§1) Normal human foreskin fibroblasts (HFF), human colon (HCT116, RKO), lung (H460, A549) and breast (MCF7) tumor cell lines were cultured in high glucose DMEM (Life Technologies) containing 10% fetal bovine serum (FBS) at 37° C. in a humidified 5% CO2, 95% air incubator. Cells were harvested using trypsin/EDTA, counted using a haemocytometer, and plated in 100 μL of culture media per well, at the following densities, in a 96-well tissue culture plate (Falcon 3075): HFF 5,000 cells/well, HCT116 3,000 cells/well, RKO 2,500 cells/well, H460 2,500 cells/well, A549 5,000 cells/well, MCF7 4,000 cells/well. The next day, compounds were diluted in low glucose DMEM containing 100 μg/mL gentamicin, at twice the final required concentration, from 10 mM stock solutions in DMSO. 100 μL/well of these dilutions were added to the 100 μL of media currently in the assay plates. Medium containing 0.6% DMSO was added to control wells. The final concentration of DMSO in all wells was 0.3%. Cells were incubated at 37° C., 5% CO2 for 72 h. Medium was removed by aspiration. Cell biomass was estimated by staining cells with 80 μL per well methylene blue (Sigma M9140, 0.5% in 50:50 ethanol:water), and incubation at room temperature for 30-60 min. Stain was removed by aspiration and the plates rinsed by immersion in water, then air-dried. To release stain from the cells, 100 μL of solubilization solution was added (1% N-lauroyl sarcosine, Sodium salt, Sigma L5125, in PBS), and plates were shaken gently for about 30 min. Optical density at 620 nm was measured on a microplate reader. Percent inhibition of cell growth was calculated relative to vehicle treated control wells. Concentration of compound that inhibits 50% of cell growth (IC50) was interpolated using nonlinear regression (Levenberg-Marquardt) and the equation, y=Vmax*(1−(x/(K+x)))+Y2, where “K” was equal to the IC50.

[2] = Intravenous pharmacokinetics in CD-1 mouse; assay type: in vivo; settings: plasma, iv bolus, male CD-1 mouse, dose 1.9-7.4 mg/kg per compound (Table 3); for clearance: read-out: Plasma CL
[3] = system: H460; experiment: Methylene Blue Cell Growth Inhibition Assay, H460; assay type: cell-based; settings: Homo sapiens, NCI-H460, 72 h, read-out: MEB H460 IC50
Method: as §1

Row | Structure (SMILES) | IC50 [1] [nM] | AUC(0-t) [2] [ng·h/mL] | clearance [2] [mL/min/kg] | IC50 [3] [nM]
1 | C[C@@H](Oc1cc(-n2cnc3cc(-c4ccc(N5CCNCC5)nc4)ccc32)sc1C(N)=O)c1ccccc1C(F)(F)F [Example 1, 5-{5-[6-(1-piperazinyl)-3-pyridinyl]-1H-benzimidazol-1-yl}-3-({(1R)-1-[2-(trifluoromethyl)phenyl]ethyl}oxy)-2-thiophenecarboxamide] | 100 to 1000 | 3420 | 23.5 | 100 to 1000
2 | C[C@@H](Oc1cc(-n2cnc3cc(-c4ccc(N5CCNCC5)nc4)ccc32)sc1C(N)=O)c1ccccc1Cl [Example 7, 3-{[(1R)-1-(2-Chlorophenyl)ethyl]oxy}-5-{5-[6-(1-piperazinyl)-3-pyridinyl]-1H-benzimidazol-1-yl}-2-thiophenecarboxamide] | – | 3740 | 33 | –
3 | C[C@@H](Oc1cc(-n2cnc3cc(-c4cnn(C)c4)ccc32)sc1C(N)=O)c1ccccc1Cl [Example 9, 3-{[(1R)-1-(2-Chlorophenyl)ethyl]oxy}-5-[5-(1-methyl-1H-pyrazol-4-yl)-1H-benzimidazol-1-yl]-2-thiophenecarboxamide] | < 100 | 5760 | 12.1 | < 100
